Structures can show the parent of a compound that is named as a salt.
target: T1, PKCδ (Homo sapiens, UniProt Q05655); assay: In vitro radiometric PKC kinase assay; type: biochemical; conditions: 0.1, 1 and 10 µM
T1 construct: purchased SignalChem (Richmond, BC, Canada)
Method: (§1) The PKC kinase assay was carried out by co-incubating 1 µCi [γ-^32P]ATP, 20 µM ATP, 50 ng of purified PKCα or PKCδ and 5 µg of myelin basic protein 4–14, 0.25 mg/mL bovine serum albumin, 0.1 mg/mL phosphatidylcholine/phosphatidylserine (80/20%) (1 µM), 1 µM phorbol dibutyrate in 50 µL of kinase buffer containing 50 mM Tris-HCl, pH 7.5, 4 mM MgCl2 and 10 mM β-mercaptoethanol. For the CAMK assay, 50 ng of CAMKIIα and 2 µg syntide-2 substrate in 50 µL kinase buffer were incubated with 0.1 mM MgCl2, 1 µCi of [γ-^32P] ATP, 70 µM ATP. 0.5 mM CaCl2 and 30 ng/µL calmodulin were preincubated for 15 min on ice and then added in the kinase reaction. The reactions were incubated at 30°C for 10 min and 25 µL of the reaction was spotted on Whatman P81 filter paper. The filter paper was washed 3 times in 0.5% phosphoric acid, air dried and counted using Beckman LS6500 multipurpose scintillation counter.

T1 sequence (Q05655 whole entry): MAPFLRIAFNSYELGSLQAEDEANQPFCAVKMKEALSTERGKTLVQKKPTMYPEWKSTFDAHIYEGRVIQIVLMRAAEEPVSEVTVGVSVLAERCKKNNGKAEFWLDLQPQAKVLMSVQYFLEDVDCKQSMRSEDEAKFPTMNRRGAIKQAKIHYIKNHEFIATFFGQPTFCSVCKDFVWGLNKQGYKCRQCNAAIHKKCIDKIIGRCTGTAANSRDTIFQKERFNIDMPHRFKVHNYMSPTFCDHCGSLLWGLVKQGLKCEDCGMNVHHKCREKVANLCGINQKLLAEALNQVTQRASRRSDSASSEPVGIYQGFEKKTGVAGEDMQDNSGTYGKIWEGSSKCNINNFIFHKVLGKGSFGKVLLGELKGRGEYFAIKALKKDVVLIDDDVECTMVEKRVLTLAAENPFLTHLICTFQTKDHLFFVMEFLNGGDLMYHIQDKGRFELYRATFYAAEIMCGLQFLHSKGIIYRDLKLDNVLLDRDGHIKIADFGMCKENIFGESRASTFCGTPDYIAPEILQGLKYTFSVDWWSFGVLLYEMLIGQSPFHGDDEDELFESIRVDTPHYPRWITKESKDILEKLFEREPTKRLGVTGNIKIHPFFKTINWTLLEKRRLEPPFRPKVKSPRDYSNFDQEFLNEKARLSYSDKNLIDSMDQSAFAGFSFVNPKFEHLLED

| SMILES | inhibition of PKCδ, in words |
| --- | --- |
| CN(C)CCCn1cc(C2=C(c3c[nH]c4ccccc34)C(=O)NC2=O)c2ccccc21 [GF109203X, reference compound] | potently and concentration-dependently inhibited |

target: T2, PKCα (Homo sapiens, UniProt P17252); assay: In vitro radiometric PKC kinase assay; type: biochemical; conditions: 0.1, 1 and 10 µM
T2 construct: purchased SignalChem (Richmond, BC, Canada)
Method: as §1

| SMILES | inhibition of PKCα, in words |
| --- | --- |
| CN(C)CCCn1cc(C2=C(c3c[nH]c4ccccc34)C(=O)NC2=O)c2ccccc21 [GF109203X, reference compound] | potently and concentration-dependently inhibited |

target: T3, PKD1 (Homo sapiens, UniProt Q15139); assay: In vitro radiometric PKD1 screening assay at 1 µM; type: biochemical; conditions: 1 µM; targeted kinase inhibitor library screen; relative to DMSO
T3 construct: GST; purchased Enzo Life sciences (Farmingdale, NY)
T3 sequence (Q15139 1-912): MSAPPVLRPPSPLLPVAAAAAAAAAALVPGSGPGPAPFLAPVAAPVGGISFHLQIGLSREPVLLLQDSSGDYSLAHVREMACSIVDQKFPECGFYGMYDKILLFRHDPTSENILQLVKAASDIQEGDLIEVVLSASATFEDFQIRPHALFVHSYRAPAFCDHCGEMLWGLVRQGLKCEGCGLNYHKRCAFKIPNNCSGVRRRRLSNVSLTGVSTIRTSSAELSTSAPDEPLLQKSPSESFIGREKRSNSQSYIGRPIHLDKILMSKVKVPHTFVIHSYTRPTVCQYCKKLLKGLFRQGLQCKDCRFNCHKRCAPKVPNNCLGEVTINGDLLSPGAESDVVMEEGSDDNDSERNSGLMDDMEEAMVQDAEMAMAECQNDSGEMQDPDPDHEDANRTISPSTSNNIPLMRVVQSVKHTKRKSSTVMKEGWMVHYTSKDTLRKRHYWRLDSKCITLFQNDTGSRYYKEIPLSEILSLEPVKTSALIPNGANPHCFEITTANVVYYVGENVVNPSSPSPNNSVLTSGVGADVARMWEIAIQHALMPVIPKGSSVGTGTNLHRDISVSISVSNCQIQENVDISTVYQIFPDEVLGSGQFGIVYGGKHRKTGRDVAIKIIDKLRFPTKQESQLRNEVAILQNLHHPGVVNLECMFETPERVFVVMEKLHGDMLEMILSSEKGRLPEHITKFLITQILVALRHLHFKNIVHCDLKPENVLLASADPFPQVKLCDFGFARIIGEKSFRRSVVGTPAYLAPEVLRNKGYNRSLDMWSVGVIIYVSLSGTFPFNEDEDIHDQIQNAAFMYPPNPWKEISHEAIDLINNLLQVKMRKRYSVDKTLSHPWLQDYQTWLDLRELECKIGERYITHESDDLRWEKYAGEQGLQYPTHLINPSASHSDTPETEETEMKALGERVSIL
Method: Phosphorylation of HDAC5 was detected in a kinase reaction having 1 µCi [γ-^32P] […] The reaction was incubated at 30°C for 10 minutes and 25 µL of the reaction was spotted on Whatman P81 filter paper. The filter paper was washed 3 times in 0.5% phosphoric acid, air dried and counted using Beckman LS6500 multipurpose scintillation counter. Percent PKD1 inhibition was graphed using GraphPad Prism software 5.0.

| % PKD1 Inhibition | SMILES |
| --- | --- |
| 47% | O=C1Nc2cc(Br)ccc2/C1=C1/Nc2ccccc2/C1=N\O [BIO] |
| 45% | NC(=O)c1ccc(-c2nc(-c3ccc4c(c3)OCCO4)c(-c3ccccn3)[nH]2)cc1 [D 4476] |
| 68% | Cc1ccccc1C(=O)c1ccc(Nc2ccc(Br)cc2N)cc1Cl [EO 1428] |
| 66% | Cl.Cl.O=S(=O)(NCCNC/C=C/c1ccc(Br)cc1)c1cccc2cnccc12 [H 89 Dihydrochloride] |
| 72% | CS(=O)(=O)O.Cn1cc(C2=C(c3cn(CCCSC(=N)N)c4ccccc34)C(=O)NC2=O)c2ccccc21 [Ro 31-8220 Mesylate] |
| 74% | Fc1ccc(Cl)cc1-c1nc(Nc2ccncc2)c2nccnc2n1 [SD 208] |

| SMILES | % PKD1 Inhibition |
| --- | --- |
| O=C1NC(=O)c2c1c1c3ccccc3[nH]c1c1[nH]c3ccccc3c21 [Arcyriaflavin A] | 75% |
| O=C1NC(=O)c2c1c1c3ccccc3n3c1c1c2c2ccccc2n1C1CCC3O1 [SB 218078] | 85% |

same assay, conditions: 1 µM; targeted kinase inhibitor library screen; relative to DMSO; read-out: % PKD1 Inhibition

| inhibition at 1 µM | SMILES |
| --- | --- |
| 41% | O=S(=O)(c1cccc2cnccc12)N1CCCNCC1 [Fasudil hydrochloride] |
| 74% | Oc1c2ccccc2c2c3c(cccc13)N=N2 [SP 600125] |

same assay, conditions: SAR of synthesized 1-NA-PP1 analogs

| PKD1 inhibitory activity, SAR result in words | SMILES |
| --- | --- |
| ablated the PKD1 activity | CNc1ncnc2c1c(-c1cccc3ccccc13)nn2C(C)(C)C [Compound 1a, 1-(t-Butyl)-N-methyl-3-(naphthalen-1-yl)-1H-pyrazolo[3,4-d]pyrimidin-4-amine] |
| did not show an increase in potency | COc1ccc(-c2nn(C)c3nc(Cl)nc(N)c23)cc1 [Compound 1j, 6-Chloro-3-(4-methoxyphenyl)-1-methyl-1H-pyrazolo[3,4-d]pyrimidin-4-amine] |
| did not show an increase in potency | CNc1nc(Cl)nc2c1c(-c1ccc(OC)cc1)nn2C [Compound 1k, 6-Chloro-3-(4-methoxyphenyl)-N,1-dimethyl-1H-pyrazolo[3,4-d]pyrimidin-4-amine] |
| did not show an increase in potency | CNc1nc(Cl)nc2c1c(-c1ccc(OC(F)(F)F)cc1)nn2C [Compound 1m, 6-Chloro-N,1-dimethyl-3-(4-(trifluoromethoxy)phenyl)-1H-pyrazolo[3,4-d]pyrimidin-4-amine] |
| did not show an increase in potency | CNc1ncnc2c1c(-c1ccc(-c3ccccc3)cc1)nn2C [Compound 1p, 3-([1,1'-Biphenyl]-4-yl)-N,1-dimethyl-1H-pyrazolo[3,4-d]pyrimidin-4-amine] |

same assay, conditions: read-out: inhibition of PKD1 activity

| inhibition at 1 µM | SMILES |
| --- | --- |
| 32% | Cn1nc(-c2cccc3ccccc23)c2c(N)ncnc21 [Compound 1f, 1-Methyl-3-(naphthalen-1-yl)-1H-pyrazolo[3,4-d]pyrimidin-4-amine] |

tested on: not given; assay: not given; conditions: not given

| melting point | SMILES |
| --- | --- |
| 152.4 to 156.3 °C | CNc1ncnc2c1c(-c1cccc3ccccc13)nn2C(C)(C)C [Compound 1a, 1-(t-Butyl)-N-methyl-3-(naphthalen-1-yl)-1H-pyrazolo[3,4-d]pyrimidin-4-amine] |
| 89.3 to 91.2 °C | CNc1ncnc2c1c(-c1ccc(OC)cc1)nn2C(C)(C)C [Compound 1c, 1-(t-Butyl)-3-(4-methoxyphenyl)-N-methyl-1H-pyrazolo[3,4-d]pyrimidin-4-amine] |
| 185 to 188 °C | COc1ccc(-c2nn(C)c3ncnc(N)c23)cc1 [Compound 1h, 3-(4-Methoxyphenyl)-1-methyl-1H-pyrazolo[3,4-d]pyrimidin-4-amine] |
| > 250 °C | COc1ccc(-c2nn(C)c3nc(Cl)nc(N)c23)cc1 [Compound 1j, 6-Chloro-3-(4-methoxyphenyl)-1-methyl-1H-pyrazolo[3,4-d]pyrimidin-4-amine] |
| 159.3 to 160.9 °C | CNc1nc(Cl)nc2c1c(-c1ccc(OC)cc1)nn2C [Compound 1k, 6-Chloro-3-(4-methoxyphenyl)-N,1-dimethyl-1H-pyrazolo[3,4-d]pyrimidin-4-amine] |
| 189.9 to 192.3 °C | CNc1nc(Cl)nc2c1c(-c1ccc(F)cc1)nn2C [Compound 1o, 6-Chloro-3-(4-fluorophenyl)-N,1-dimethyl-1H-pyrazolo[3,4-d]pyrimidin-4-amine] |

Source: paper PMC3781056, “New Pyrazolopyrimidine Inhibitors of Protein Kinase D as Potent Anticancer Agents for Prostate Cancer Cells” (PLoS ONE, 2013)
